# Experimental data taken from patent US20100150938A1, “METHODS AND COMPOSITIONS FOR REDUCING INFLAMMATION AND TREATING INFLAMMATORY DISORDERS” (UNIVERSITY OF MASSACHUSETTS, priority 2008, published 2010).
# “Also recorded” adds a separate entry of the source.
# How the values were obtained:
# Format in all cases: cell-based
# [1] = system: human PBMCs; test: IL-1β release from human PBMCs (ELISA, Western blot)
# Protocol: (§1) Bone marrow derived macrophages were generated as described (Severa, M et al. Journal of Biological Chemistry 281:26188-26195 (2006)). Human PBMCs were isolated by from whole blood of healthy volunteers by density gradient centrifugation. Lysis of red blood cells was performed using red blood cell lysis buffer (Sigma). Experiments in PBMCs and macrophages were carried out at a cell density of 2×10^6 cells/ml. All primary cells and cell lines except THP-1 cells were cultured in DMEM supplemented with L-glutamine, ciprofloxacin (Cellgro, Manassas, Va.) and 10% fetal calf serum (Hyclone, Logan, Utah). THP-1 cells were cultured in RPMI supplemented with 10% fetal calf serum (Hyclone), L-glutamine, sodium pyruvate (Cellgro), and ciprofloxacin. One day prior to stimulation, THP-1 cells were differentiated using 0.5 μM PMA for three hours, washed three times and plated for stimulation. All experiments that were performed for Western blot analysis were carried out in serum free DMEM medium. ATP stimulations were carried out at 5 mM one hour prior to harvesting supernatants.
# (§2) Cell culture supernatants were assayed for IL-1β using ELISA kits from BD Biosciences (Franklin Lakes, NJ) according to the manufacturer's instructions. To measure intracellular IL-1β, cells were washed and subjected to three freeze thaw cycles in assay diluent.
# Cell culture supernatants were precipitated by adding an equal volume of methanol and 0.25 volumes of chloroform, vortexed and centrifuged at 20.000×g for 10 min. The upper phase was discarded and 500 μl of methanol was added to the interphase. This mixture was centrifuged at 20.000×g for 10 min and the protein pellet dried at 55° C., resuspended in Laemmli buffer and boiled at 99° C. for 5 min. Samples were separated by SDS-PAGE (15%) and transferred onto nitrocellulose membranes. […]
# [2] = system: mouse macrophages; test: IL-1β release from LPS-primed mouse macrophages (bone marrow-derived, B6-MCLs), ELISA; details: LPS-primed B6-MCLs, cytochalasin D 30 min
# Protocol: as §1
# Immortalized macrophage cell lines were generated using the previously described J2 recombinant retrovirus (carrying v-myc and v-raf/mil oncogenes) (Roberson, S. M. & Walker, W. S. Cellular immunology 116:341-351 (1988)). Briefly, primary bone marrow cells were incubated in L929 conditioned medium for 3-4 days to induce macrophage differentiation. Subsequently, cells were infected with J2 recombinant retrovirus. Cells were maintained in culture for 3-6 months slowly weaning off the percentage of L929 supernatant until cells were growing in the absence of conditioned medium.
# Macrophage phenotype was verified by surface marker expression for CD11b and F480 as well as a range of functional parameters, including responsiveness to TLR ligands and bacterial uptake. Macrophage cell lines from wild-type (C57BL6), NALP3- and ASC-deficient mice were generated and are referred to as B6-MCLs, NALP3 -MCLs and ASC-MCLs.
# as §2
# (§3) Stimulations were carried out in serum free DMEM medium. Microglial cells and macrophages were primed with 100 U/ml IFNγ (Griess assay, TNF ELISA, real-time quantitative PCR) or 100 ng/ml ultrapure LPS (IL-1β ELISA, FLICA, ASC-CFP microglia cell line assay, Western blot) 1-3 h prior to stimulation with Aβ, revAβ, zymosan, ATP or transfection with dAdT.
# [3] = system: mouse macrophages; test: Crystal uptake (phagocytosis) in mouse macrophages, confocal reflection microscopy; details: cytochalasin D 2.5 μM
# Text: Confocal reflection microscopy was combined with fluorescence microscopy on a Leica SP2 AOBS confocal laser scanning microscope. Reflection was captured by placing the detector channel directly over the wavelength of the selected laser channel for reflection light capture and the AOBS was set to allow 5-15% of laser light into the collection channel. Fluorescence was simultaneously captured by standard confocal imaging techniques.
# To visualize the uptake of crystalline material in living cells, we devised a method to image crystals simultaneously with cellular components stained with fluorescent dyes (FIG. 8b). We used this method to study the uptake of crystals into mouse macrophages. […] The median length of silica Q6 crystals engulfed by phagocytosis was 1.65 μm (FIG. 3c).
# [4] = system: mouse microglia; test: IL-1β release from LPS-primed mouse microglia (ELISA)
# Protocol: For primary cultures, bone marrow-derived macrophages and microglia were isolated as described^42,43 and cultured in DMEM supplemented with L-glutamine, ciprofloxacin (Cellgro, Manassas, Va.) and 10% fetal calf serum (Hyclone, Logan, Utah) Immortalized macrophage and microglial cell lines were generated using J2 recombinant retrovirus (carrying v-myc and v-raf oncogenes)^44,45. Briefly, primary bone marrow cells were incubated in L929 conditioned medium for 3-4 days to induce macrophage differentiation. Cells were then infected with J2 recombinant retrovirus and maintained in culture until cells were growing in the absence of conditioned medium. Similarly, primary mixed glial cultures were cultured until fully confluent. After two consecutive infections with J2 retrovirus, cells were maintained in normal medium until growth of microglial cells in colonies was observed. The semi-adherent colonies of microglial cells were washed off and cultured in new flasks. […] Microglial cell lines form wild type (C57/BL6), Caspase-1^−/− and IL-IR^−/− mice as well as macrophage cell lines from wild type (C57BL6), NALP3 -, IPAF- and ASC-deficient mice were generated and used for experiments as indicated.
# as §3
# (§4) Cell culture supernatants were assayed for IL-1β and TNFα using ELISA kits from R&D Systems (Minneapolis, Minn.) according to the manufacturer's instructions. Nitric oxide was measured by Griess reaction of nitrites accumulated in the supernatants using chemicals from Sigma.
# [5] = system: mouse microglia; test: Nitric oxide production by primed microglia (Griess reaction); details: primed immortalized microglia, 24 h
# Protocol: as §3, §4
# [6] = system: mouse microglia; test: TNF-α release from primed microglia (ELISA); details: primed immortalized microglia, 24 h
# Protocol: as §3, §4
# [7] = human PBMCs pretreated with cytochalasin D
# [8] = wild type immortalized microglia
Structure (SMILES),"IL-1β release after treatment with MSU or silica crystals, inhibitor pretreatment [1, 7]","IL-1β response to R-848 or ATP, inhibitor pretreatment [1, 7]","IL-1β response to ATP, inhibitor present [2]","IL-1β release after treatment with MSU or silica crystals, inhibitor present ([2]; MSU 250 μg/ml, silica 500 μg/ml)",phagocytosis of silica or MSU crystals by treated cells [3],"ATP-induced IL-1β release in presence of cytochalasin D [4, 8]","Aβ-induced IL-1β release in presence of cytochalasin D [4, 8]","IL-1β response to silica crystal treatment in presence of inhibitor ([1]; LPS-primed human PBMCs, silica crystals, z-YVAD, 6 h)",ATP-induced IL-1β release in presence of caspase-1 inhibitor ([4]; primary microglia),Aβ-induced IL-1β release in presence of caspase-1 inhibitor ([4]; primary microglia),"Aβ-induced IL-1β release in presence of caspase-1 inhibitor ([4]; wild type immortalized microglial cells, 6 h)","Aβ-induced NO production, inhibitor present [5]","Aβ-induced TNF-α release, inhibitor present [6]"
C=C1[C@@H](C)[C@H]2[C@H](Cc3ccccc3)NC(=O)[C@]23[C@H](OC(C)=O)/C=C/[C@@](C)(O)C(=O)[C@@H](C)C/C=C/[C@H]3[C@@H]1O [cytochalasin D],completely abrogated,unaffected,unaffected,abrogated,failed to engulf,no effect; also recorded: not affected,strongly attenuated; also recorded: dose-dependently inhibited,–,–,–,–,–,–
"COC(=O)C[C@H](NC(=O)[C@H](C)NC(=O)[C@@H](NC(=O)[C@H](Cc1ccc(O)cc1)NC(=O)OCc1ccccc1)C(C)C)C(=O)CF [z-YVAD, z-YVAD-fmk]",–,–,–,–,–,–,–,almost completely abolished,also inhibited,dose-dependently reduced,dose-dependent inhibition; also recorded: significant attenuation,strongly and dose-dependently attenuated; also recorded: strongly inhibited,attenuated; also recorded: inhibited
